pIC50: −log10 of the molar value. Like-named read-outs stand apart in the source and are kept apart here.
Legend:
PDE4 = test: Evaluation of PDE4 inhibitory activity, scintillation proximity assay; assay type: biochemical; details: scintillation proximity assay
Summary of the method: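 SPA with [2,8-3H]-cAMP and diluted PDE4 enzyme preparation in 50 mM Tris-HCl pH 7.4, 8.3 mM MgCl2, 1.7 mM EGTA, 3 mg/mL BSA, 120 min at room temperature. Product captured on ZnSO4-containing YSi-SPA beads, scintillation counted; IC50 from inhibition curves vs DMSO control and no-enzyme blank.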

[1] = Hepatic metabolic stability (rat liver microsome method); assay type: in vitro ADME; details: rat liver microsomes 0.5 mg/mL, test substance 1 μM, NADPH 1 mM, 37° C., 30 minutes
Experimental: Metabolic stability in rat liver microsomes was evaluated by the following method. First, in 100 mM of potassium phosphate buffer solution (pH 7.4), liver microsomes (concentration at reaction: 0.5 mg/mL) and the test substance (concentration at reaction: 1 μM) were preincubated at 37° C. Five minutes later, 100 mM of potassium phosphate buffer (pH 7.4) solution of NADPH (concentration at reaction: 1 mM) was mixed thereto to start the reaction. After a predetermined time passed, acetonitrile was mixed to the reaction mixture to stop the reaction. Here, the reaction time was 0 and 30 minutes, and drug concentration measurement was performed for each time period using LC-MS. The % remaining value of the test compound was calculated from the value for 0 minutes and the value for 30 minutes, using the calculation formula below: % Remaining=(Value for 30 Minutes/Value for 0 Minutes)×100
The results of measuring the rat liver microsome metabolic Stability (% remaining for 30-minute reaction) for the test compound by the above method were evaluated in accordance with the following evaluated basis; A: a % remaining rate of 75% or more, B: 60% or more and less than 75%, C: 45% or more and less than 60%, and D: less than 45%.

[2] = read-out: PDE4 Inhibitory Activity (Evaluation 1; concentration for the inhibition rate of 50%)

Compound	pIC50 (PDE4; [2])	Residual ratio (% remaining for 30-minute reaction) [1]	pIC50 (PDE4; class symbols of Evaluation 1, read-out: PDE4 Inhibitory Activity (concentration for the inhibition rate of 50%, IC50), Evaluation 1)
COCCNS(=O)(=O)c1ccc(-c2nccs2)c2oc(N3CC4CC(C3)N4)nc12 [Example 387, 2-(3,6-Diazabicyclo[3.1.1]heptan-3-yl)-N-(2-methoxyethyl)-7-(thiazol-2-yl)benzo[d]oxazole-4-sulfonamide]	> 7.00	A (A: a % remaining rate of 75% or more)	
O=S(=O)(NCCO)c1ccc(-c2nccs2)c2oc(N3CC4CC(C3)N4)nc12 [Example 385, 2-(3,6-Diazabicyclo[3.1.1]heptan-3-yl)-N-(2-hydroxyethyl)-7-(thiazol-2-yl)benzo[d]oxazole-4-sulfonamide]	> 7.00	A (A: a % remaining rate of 75% or more)	
O=S(=O)(CCO)c1ccc(-c2nccs2)c2oc(N3CC4CC(C3)N4)nc12 [Example 350, 2-((2-(3,6-Diazabicyclo[3.1.1]heptan-3-yl)-7-(thiazol-2-yl)benzo[d]oxazol-4-yl)sulfonyl)ethan-1-ol]	> 7.00	A (A: a % remaining rate of 75% or more)	
Cc1nsc(-c2ccc(OC(F)(F)C(C)(C)O)c3nc(N4CC5CCC(C4)N5)oc23)n1 [Example 333, 1-((2-(3,8-Diazabicyclo[3.2.1]octan-3-yl)-7-(3-methyl-1,2,4-thiadiazol-5-yl)benzo[d]oxazol-4-yl)oxy)-1,1-difluoro-2-methylpropan-2-ol]	6.00 to 7.00	B (B: 60% or more and less than 75%)	
O=C(NCCO)c1ccc(-c2nccs2)c2oc(N3CC4CC(C3)N4)nc12 [Example 355, 2-(3,6-Diazabicyclo[3.1.1]heptan-3-yl)-N-(2-hydroxyethyl)-7-(thiazol-2-yl)benzo[d]oxazole-4-carboxamide]	> 7.00	A (A: a % remaining rate of 75% or more)	
c1cnc(Oc2ccc(-c3nccs3)c3oc(N4CC5CC(C4)N5)nc23)nc1 [Example 338, 2-(3,6-Diazabicyclo[3.1.1]heptan-3-yl)-4-(pyrimidin-2-yloxy)-7-(thiazol-2-yl)benzo[d]oxazole]	> 7.00	A (A: a % remaining rate of 75% or more)	
FC(F)(F)C(OCc1nnn[nH]1)c1ccc(-c2nccs2)c2oc(N3CC4CC(C3)N4)nc12 (stereo not drawn) [Example 231, 4-(1-((1H-tetrazol-5-yl)methoxy)-2,2,2-trifluoroethyl)-2-(3,6-diazabicyclo[3.1.1]heptan-3-yl)-7-(thiazol-2-yl)benzo[d]oxazole]	> 7.00	A (A: a % remaining rate of 75% or more)	
CC(C)(O)C(F)(F)Oc1ccc(-c2ccc(F)cn2)c2oc(N3CC4CCC(C3)N4)nc12 [Example 332, 1-((2-(3,8-Diazabicyclo[3.2.1]octan-3-yl)-7-(5-fluoropyridin-2-yl)benzo[d]oxazol-4-yl)oxy)-1,1-difluoro-2-methylpropan-2-ol]	> 7.00	A (A: a % remaining rate of 75% or more)	
OC(c1cc(-c2nccs2)c2oc(N3CC4CCC(C3)N4)nc2c1)C(F)F (stereo not drawn) [Example 104, 1-(2-(3,8-Diazabicyclo[3.2.1]octan-3-yl)-7-(thiazol-2-yl)benzo[d]oxazol-5-yl)-2,2-difluoroethan-1-ol]		B (B: 60% or more and less than 75%)	> 7.00
CC(O)C(F)(F)Oc1ccc(-c2nccs2)c2oc(N3CC4CC(C3)N4O)nc12 (single isomer, unassigned) [Example 373, 3-(4-(1,1-Difluoro-2-hydroxypropoxy)-7-(thiazol-2-yl)benzo[d]oxazol-2-yl)-3,6-diazabicyclo[3.1.1]heptan-6-ol]	> 7.00	B (B: 60% or more and less than 75%)	
[O-][S+](CCO)c1ccc(-c2nccs2)c2oc(N3CC4CC(C3)N4)nc12 (stereo not drawn) [Example 349, 2-((2-(3,6-Diazabicyclo[3.1.1]heptan-3-yl)-7-(thiazol-2-yl)benzo[d]oxazol-4-yl)sulfinyl)ethan-1-ol]	> 7.00	A (A: a % remaining rate of 75% or more)	
O=C(N1CC(O)C1)C(F)(F)Oc1ccc(-c2nccs2)c2oc(N3CC4CC(C3)N4)nc12 [Example 412, 2-((2-(3,6-Diazabicyclo[3.1.1]heptan-3-yl)-7-(thiazol-2-yl)benzo[d]oxazol-4-yl)oxy)-2,2-difluoro-1-(3-hydroxyazetidin-1-yl)ethan-1-one]	> 7.00	A (A: a % remaining rate of 75% or more)	
CC(C)(O)C(F)(F)Oc1ccc(-c2ccc(F)cn2)c2oc(N3CC4CC(C3)N4)nc12 [Example 329, 1-((2-(3,6-Diazabicyclo[3.1.1]heptan-3-yl)-7-(5-fluoropyridin-2-yl)benzo[d]oxazol-4-yl)oxy)-1,1-difluoro-2-methylpropan-2-ol]	> 7.00	A (A: a % remaining rate of 75% or more)	
Cc1csc(-c2ccc(OC(F)(F)C(C)(C)O)c3nc(N4CC5CC(C4)N5)oc23)n1 [Example 306, 1-((2-(3,6-Diazabicyclo[3.1.1]heptan-3-yl)-7-(4-methylthiazol-2-yl)benzo[d]oxazol-4-yl)oxy)-1,1-difluoro-2-methylpropan-2-ol]	6.00 to 7.00	A (A: a % remaining rate of 75% or more)	
CC(C)(O)C(F)(F)Oc1ccc(-c2ccsn2)c2oc(N3CC4CCC(C3)N4)nc12 [Example 331, 1-((2-(3,8-Diazabicyclo[3.2.1]octan-3-yl)-7-(isothiazol-3-yl)benzo[d]oxazol-4-yl)oxy)-1,1-difluoro-2-methylpropan-2-ol]	> 7.00	B (B: 60% or more and less than 75%)	
OCc1ccc(Oc2ccc(-c3nccs3)c3oc(N4CC5CC(C4)N5)nc23)nc1 [Example 341, (6-((2-(3,6-Diazabicyclo[3.1.1]heptan-3-yl)-7-(thiazol-2-yl)benzo[d]oxazol-4-yl)oxy)pyridin-3-yl)methanol]	> 7.00	A (A: a % remaining rate of 75% or more)	
OCC(F)(F)Oc1c(Cl)cc(-c2nccs2)c2oc(N3CC4CC(C3)N4)nc12 [Example 401, 2-((2-(3,6-Diazabicyclo[3.1.1]heptan-3-yl)-5-chloro-7-(thiazol-2-yl)benzo[d]oxazol-4-yl)oxy)-2,2-difluoroethan-1-ol]	> 7.00	A (A: a % remaining rate of 75% or more)	
O=C(c1ccc(-c2nccs2)c2oc(N3CC4CC(C3)N4)nc12)N1CCCC1 [Example 360, (2-(3,6-Diazabicyclo[3.1.1]heptan-3-yl)-7-(thiazol-2-yl)benzo[d]oxazol-4-yl) (pyrrolidin-1-yl)methanone]	6.00 to 7.00	A (A: a % remaining rate of 75% or more)	
CC(O)C(F)(F)Oc1ccc(-c2nccs2)c2oc(N3CC4CC(C3)N4O)nc12 (single isomer, unassigned) [Example 372, 3-(4-(1,1-Difluoro-2-hydroxypropoxy)-7-(thiazol-2-yl)benzo[d]oxazol-2-yl)-3,6-diazabicyclo[3.1.1]heptan-6-ol]	> 7.00	B (B: 60% or more and less than 75%)	
N#Cc1ccc(-c2nccs2)c2oc(N3CC4CC(C3)N4)nc12 [Example 335, 2-(3,6-Diazabicyclo[3.1.1]heptan-3-yl)-7-(thiazol-2-yl)benzo[d]oxazole-4-carbonitrile]	> 7.00	A (A: a % remaining rate of 75% or more)	
OCC(O)C(F)(F)Oc1ccc(-c2nccs2)c2oc(N3CC4CC(C3)N4)nc12 (stereo not drawn) [Example 370, 3-((2-(3,6-Diazabicyclo[3.1.1]heptan-3-yl)-7-(thiazol-2-yl)benzo[d]oxazol-4-yl)oxy)-3,3-difluoropropane-1,2-diol]	> 7.00	A (A: a % remaining rate of 75% or more)	
OCc1cnc(Oc2ccc(-c3nccs3)c3oc(N4CC5CC(C4)N5)nc23)c(C(F)(F)F)c1 [Example 342, (6-((2-(3,6-Diazabicyclo[3.1.1]heptan-3-yl)-7-(thiazol-2-yl)benzo[d]oxazol-4-yl)oxy)-5-(trifluoromethyl)pyridin-3-yl)methanol]	> 7.00	B (B: 60% or more and less than 75%)	
c1csc(-c2ccc(OC3COC3)c3nc(N4CC5CC(C4)N5)oc23)n1 [Example 325, 2-(3,6-Diazabicyclo[3.1.1]heptan-3-yl)-4-(oxetan-3-yloxy)-7-(thiazol-2-yl)benzo[d]oxazole]	> 7.00	A (A: a % remaining rate of 75% or more)	
CN(CCO)C(=O)c1ccc(-c2nccs2)c2oc(N3CC4CC(C3)N4)nc12 [Example 356, 2-(3,6-Diazabicyclo[3.1.1]heptan-3-yl)-N-(2-hydroxyethyl)-N-methyl-7-(thiazol-2-yl)benzo[d]oxazole-4-carboxamide]	6.00 to 7.00	A (A: a % remaining rate of 75% or more)	

— patent US12239643B2, “Therapeutic agent for inflammatory diseases, autoimmune diseases, fibrotic diseases, and cancer diseases” (MEIJI SEIKA PHARMA CO., LTD., priority 2018, dated 2025)
